Key:
mice = assay: Porsolt's swim test (Behavioural Despair Test); assay type: in vivo; settings: for Duration of immobility ± Standard Error of Mean: 30 minutes before the test, last 4 of 6 minutes
Procedure: The “Behavioural Despair Test” or “Porsolt's Forced Swim Test” is a validated animal model for depression (see T. Nagatsu, NeuroToxicology 2004, 25, 11-20, especially p. 16, right column in the middle, in combination with Porsolt et al., Arch. Int. Pharmacodyn. 1977, 229, 327-336). It responds to enhancement of the transmission of several neurotransmitters including serotonine, dopamine and noradrenaline.
The test, which detects antidepressant activity, was carried out as described by Porsolt et al. in Arch. Int. Pharmacodyn. 1977, 229, 327-336. Mice which are forced to swim in a situation from which they cannot escape rapidly become immobile. Antidepressants decrease the duration of immobility.
Mice were individually placed in a cylinder (Height=24 cm, Diameter=13 cm) containing 10 cm water (22° C.) from which they could not escape. The mice were placed in the water for 6 minutes and the duration of immobility during the last 4 minutes was measured.
10 mice were studied per each of the four groups. The test was performed blind, i.e. the person carrying out the experiment was different from the person injecting the mice and didn't thus know to which of the four groups each mouse belonged.
Obliquin was evaluated at 3 doses each: at 10, 30, and 80 mg/kg body weight, administered intraperitonally 30 minutes before the test, and compared with a control group. The thus administered obliquin was dissolved in a saline solution containing 3 weight-% DMSO and 3 weight-% Tween® 80 (so called “vehicle”). To the control group the vehicle consisting of the saline solution containing 3 weight-% DMSO and 3 weight-% Tween® 80 was administered intraperitonally.
Data were analyzed by comparing the treated groups with the control group using the unpaired Student's T tests and Analysis of Variance (ANOVA).

MAO-A = molecular target: T1, MAO-A (Homo sapiens, UniProt P21397); assay: MAO-A inhibition, Amplex Red Monoamine Oxidase Assay Kit, colorimetric; assay type: biochemical; settings: substrate p-tyramine
T1 construct: purchased Sigma M7316
T1 sequence (P21397 1-527): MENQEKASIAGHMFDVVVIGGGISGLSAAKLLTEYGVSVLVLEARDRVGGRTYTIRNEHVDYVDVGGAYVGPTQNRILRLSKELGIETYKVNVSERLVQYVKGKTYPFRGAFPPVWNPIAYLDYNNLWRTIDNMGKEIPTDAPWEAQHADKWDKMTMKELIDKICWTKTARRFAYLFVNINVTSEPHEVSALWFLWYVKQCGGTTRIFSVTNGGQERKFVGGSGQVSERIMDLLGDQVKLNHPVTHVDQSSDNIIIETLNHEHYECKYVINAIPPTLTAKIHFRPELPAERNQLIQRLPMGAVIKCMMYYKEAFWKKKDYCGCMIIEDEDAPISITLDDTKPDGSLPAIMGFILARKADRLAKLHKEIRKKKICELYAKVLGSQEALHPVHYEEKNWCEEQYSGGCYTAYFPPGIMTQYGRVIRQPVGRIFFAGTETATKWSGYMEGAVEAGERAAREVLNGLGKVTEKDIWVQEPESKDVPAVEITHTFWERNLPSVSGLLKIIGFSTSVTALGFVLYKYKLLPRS
Procedure: From a stock solution of 0.0405 g of racemic obliquin (92.5%; equal to 37.5 mg of pure compound) in 750 μl of dimethylsulfoxide (DMSO), working solutions were prepared with a concentration of obliquin of 4. 10^−4M in reaction buffer (0.05 M sodium phosphate, pH 7.4, 0.2% DMSO). The final concentrations of obliquin in the test system were 10^−4 M, 10^−5 M, 10^−6 M, 10^−7 M.
For determining the inhibition of monoaminoxidases' activity, the Amplex Red Monoamine Oxidase Assay Kit (Molecular Probes Nr._A-12214, Colorimetric version) was conducted according to manufacturers instructions.
As substrates for MAO-A enzyme (Sigma Nr. M7316) p-tyramine and as substrate for MAO-B enzyme (Sigma Nr. M7441) benzylamine were used. The concentration of MAO-A enzyme was 8 Units/ml, and that of MAO-B 4 Units/ml in the working solution.
MAO-A and MAO-B Assay, Colorimetric Version:
For the assay, 50 μl of each working solution (see above) were used. As control solution, the obliquin containing working solution was replaced by 50 μl of the reaction buffer.
50 μl of diluted MAO-A with a final concentration of 2 Units/ml and 50 μl of diluted MAO-B with a final concentration of 1 Unit/ml, respectively, were added.
100 μl of the Amplex solution containing horseradish peroxidase (2 U/ml) and the substrate tyramine (for MAO-A) or the substrate benzylamine (for MAO-B) were added.
To allow a subtraction of the background absorption a mixture of 100 μl of the Amplex solution and 100 μl of the reaction buffer was measured as a “blank”.
The samples were incubated at room temperature in the dark for 1 hour, and then the extinction at 535 nm determined in a Softmax Microplate photometer (Molecular Device).

[1] = molecular target: human serotonin re-uptake transporter (hSERT) (Homo sapiens, UniProt P31645); assay: Serotonin uptake inhibition in HEK-293 cells stably expressing hSERT; assay type: cell-based; settings: transfected HEK-293 cells; Ki from IC50 by Cheng-Prusoff; 20 nM (3H) serotonin; read-out: Inhibition constant Ki for tritiated serotonin uptake
Procedure: HEK-293 cells stably expressing the human serotonin re-uptake transporter (hSERT) were obtained from R. Blakely, Vanderbilt University, USA. The cells were routinely grown in Dulbeco's Modified Eagles Medium, purchased from Bioconcept, Allschwil, Switzerland containing 10% fetal calf serum, penicillin, streptomycin, L-glutamine and the antibiotic G418 and passaged by trypsinisation. 1 day prior to the assay cells were seeded in the above mentioned medium. Immediately prior to the assay the medium was replaced by Krebs Ringers bicarbonate buffer, purchased from Sigma Chemicals Ltd., supplemented with 35 μM pargyline, 2.2 mM CaCl2, 1 mM ascorbic acid and 5 mM N-2-hydroxyethylpiperazine-N′-2-ethanesulfonic acid (buffer called “Hepes”). Serotonin uptake into the cells was determined by addition of radio-labeled (3H) serotonin (Amersham Biosciences GE Healthcare, Slough, UK) to a concentration of 20 nM, and incubation for 30 minutes at room temperature. Following removal of unincorporated label by gentle washing three times with the above buffer, incorporated serotonin was quantified by liquid scintillation counting.
The effect of the coumarin ethers of formula I on the serotonin uptake and the citalopram binding was determined by its inclusion in the assay at a range of concentrations between 0.03 and 100 μM for 10 minutes prior to and during the addition of (3H) serotonin/citalopram. Serotonin uptake via the transporter and citalopram binding were both inhibited by the coumarin ethers of formula I in a dose dependent manner. The calculated inhibition constants Ki, derived from the measured IC50 using the Cheng—Prusoff equation (Y. C. Cheng, W. H. Prusoff, Biochem. Pharmacol. 1973, 22, p. 3099-3108), for inhibition of serotonin uptake and citalopram binding by coumarin ethers of the formula I are shown in Table 1.

Chain of human serotonin re-uptake transporter (hSERT) (P31645 whole entry): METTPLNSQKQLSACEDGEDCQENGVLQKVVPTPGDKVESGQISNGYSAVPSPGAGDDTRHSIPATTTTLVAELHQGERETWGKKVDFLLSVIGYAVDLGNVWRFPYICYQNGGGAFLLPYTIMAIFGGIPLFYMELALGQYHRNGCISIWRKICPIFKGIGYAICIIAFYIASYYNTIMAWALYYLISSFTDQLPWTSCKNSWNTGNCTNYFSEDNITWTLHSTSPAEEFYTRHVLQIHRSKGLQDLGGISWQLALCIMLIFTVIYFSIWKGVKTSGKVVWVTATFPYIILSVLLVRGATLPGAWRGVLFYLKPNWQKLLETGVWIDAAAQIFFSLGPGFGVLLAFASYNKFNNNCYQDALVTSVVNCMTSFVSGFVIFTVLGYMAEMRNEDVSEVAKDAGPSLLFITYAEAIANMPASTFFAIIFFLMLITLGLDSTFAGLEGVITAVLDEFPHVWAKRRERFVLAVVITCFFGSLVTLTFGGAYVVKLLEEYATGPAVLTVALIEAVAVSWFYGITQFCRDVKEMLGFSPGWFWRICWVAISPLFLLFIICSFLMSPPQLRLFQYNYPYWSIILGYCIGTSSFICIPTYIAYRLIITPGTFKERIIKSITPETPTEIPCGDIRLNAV

What does the source list for `C=C(C)[C@H]1COc2cc3oc(=O)ccc3cc2O1` (racemic) [Obliquin, obliquin]?
Duration of immobility ± Standard Error of Mean (mice; mice, 10 mg/kg body weight i.p.): 170.4 ± 11.1 s; Duration of immobility ± Standard Error of Mean (mice; mice, 30 mg/kg body weight i.p.): 150.9 ± 9.6 s; Duration of immobility ± Standard Error of Mean (mice; mice, 80 mg/kg body weight i.p., p < 0.01 vs control): 132.1 ± 10.5 s; Dose dependence of effect on immobility time (mice; mice, 10, 30, 80 mg/kg i.p., ANOVA p<0.05): significant dose dependent effect; Reduction of immobility time (mice; mice, highest dose group (80 mg/kg i.p.), vs control group): 25%; inhibition at 0.1 µM (MAO-A; obliquin 1 x 10^−7 M): 2%; inhibition at 1 µM (MAO-A; obliquin 10 x 10^−7 M): 2%; inhibition at 10 µM (MAO-A; obliquin 100 x 10^−7 M): 6.5%; inhibition at 100 µM (MAO-A; obliquin 1000 x 10^−7 M): 24.1%; Ki [1]: 4.9 µM
